From US8048455B2, “Treatment of cancer and inflammatory disorder” (Academia Sinica, priority 2006, dated 2011)
Like-named read-outs stand apart in the source and are kept apart here.

Key:
iNOS protein = iNOS protein expression (immunoblotting) in LPS-stimulated RAW264.7 cells; assay type: cell-based, murine; details: LPS 1 μg/mL 18 h
Protocol: (§1) Total cellular proteins and the specific cytosolic and nuclear proteins were prepared using methods described in Chiang et al. Protein content was measured by the Bradford method (Bio-Rad). Protein was resolved by 5-20% gradient SDS-PAGE and subjected to immunoblotting using enhanced chemiluminescence reagents (ECL, Amersham). Monoclonal antibodies against PARP (Transduction Laboratories, Lexington, Ky.), GA3PDH (Biogenesis, Poole, UK), α-tubulin (Oncogene Science, Cambridge, UK), COX-2 (Cayman Chemical), phospho-(Ser32)-IκBα, phospho-IKKα(Ser180)/IKKβ(Ser181) (New England Biolabs, Beverly, Mass.), iNOS, IκBα, IKKα/β or NF-κB p65 (RelA) (Santa Cruz Biotechnology, Santa Cruz, Calif.) were used.
RAW264.7 cells were treated with the indicated concentrations of dLGG for 1 hour then LPS (1 μg/mL) was added for 18 hours. Total cellular protein (20 μg) was then subjected to immunoblotting. Quantification of iNOS mRNA and protein expression involved normalization to GA3PDH (internal control) by densitometry. […] Thus, the dLGG-induced inhibition of NO production in LPS-stimulated macrophages is also mediated through suppression of both transcription and translation of iNOS.

[1] = test system: NO production in LPS-activated RAW 264.7 macrophages; test: LPS-induced NO production in RAW 264.7 macrophages (Griess reaction); assay type: cell-based, murine; details: Mus musculus, RAW264.7
Protocol: RAW 264.7 cells were treated with compound for 1 hour, and then incubated for 24 hours with or without LPS. Nitrite levels in cell culture medium were determined using the Griess reaction (Chiang et al. Br J Pharmacol 2005; 146:352-63; Schmidt et al. Determination of nitrite and nitrate by the Griess reaction. In: Feelisch M, Stamler J S, editors. Methods In Nitric Oxide Research. New York: John Wiley & Sons Inc.; 1996. p. 491-'7). Cell viability was examined using the MTT based assay (Scudiero et al. Cancer Res 1988; 48:4827-33).
RAW 264.7 macrophage cells were treated with or without various concentrations of CREa8 extract for 1 hour, then LPS (1 μg/ml) was added and incubated for 24 hours. […] NO in the culture medium was measured. Percentage of cell viability was also determined using MTT assay. The data represent 3 experiments and are expressed as mean±SD. […]
The inhibition of LPS-induced NO production by C. rabens extracts or purified dLGG was investigated in murine RAW 264.7 macrophages by determination of nitrite level (equivalent to NO level) in culture medium 24 hours after treatment. […] NO in the culture medium was measured using the Griess reagent. Survival of macrophages after treatment was measured using MTT assay and calculated by the following formula: viable cell number (%)=OD570 (treated cell culture)/0D570 (vehicle control)×100. […]

[2] = test system: COX-2 and nitrotyrosine-containing proteins; test: Immunohistochemical study of COX-2 and nitrotyrosine protein expression in mouse skin; assay type: in vivo, Female ICR mice
Protocol: Female ICR mice were topically treated on their shaven backs with vehicle (acetone), TPA, or SNP for 4 hours, or were treated with compound (dLGG, celecoxib, or PTIO) topically for 30 minutes before treating with TPA or SNP for 4 hours and finally killed by cervical dislocation. The formalin-fixed, paraffin-embedded skin tissues were stained according to Chiang et al. Br J Pharmacol 2005; 146:352-63.
Immunohistochemical study was carried out to examine the ability of dLGG to inhibit TPA induction of COX-2 and nitration of proteins in vivo using immunohistochemical analysis in a mouse skin system. Dorsal skin of female ICR mice was treated topically with acetone (vehicle control) or TPA (10 nmol) for 4 hours or with various concentrations of dLGG or celecoxib for 30 minutes before TPA treatment for 4 hours. Immunohistograms were taken with an Olympus DP-70 camera on a Nikon ECLIPSE E800 microscope.

COX-2 mRNA = COX-2 mRNA expression (RT-PCR) in LPS-stimulated macrophages; assay type: cell-based, murine; details: 75 μg/mL
Protocol: For each RT-PCR analysis, 2 μg of total RNA isolated with TRIZOL® Reagent was used to synthesize 1st-strand cDNA using […]™ II Reverse Transcriptase (Invitrogen). The iNOS and COX-2 genes were amplified and analyzed using specific oligonucleotide primers and PCR reactions by method described in Chiang et al. Br J Pharmacol 2005; 146:352-63).
It was further examined whether dLGG affects COX-2 mRNA and protein expression using RT-PCR and immunoblotting. Cells were treated with dLGG for 1 hour, then LPS (1 μg/mL) was added for 18 hours. Total cellular protein (20 μg) was subjected to immunoblotting. Quantification of COX-2 mRNA and protein expression involved normalization to GA3PDH by densitometry.

IκBα = IκBα phosphorylation and degradation in LPS-stimulated RAW 264.7 cells (Western blot); assay type: cell-based, murine; details: dLGG 1 h, LPS 1 μg/mL 30 min
Protocol: as §1
Cells were treated with various concentrations of dLGG for 1 h followed by the addition of LPS (1 μg/mL) for 30 min. Western blots was then conducted using antibodies for IκBα or phospho-IκBα.

Q: CC/C=C\C/C=C\C/C=C\CCCCCCCC(=O)OC[C@H](CO[C@@H]1O[C@H](CO)[C@H](O)[C@H](O)[C@H]1O)OC(=O)CCCCCCC/C=C\C/C=C\C/C=C\CC [dLGG, 1,2-di-O-α-linolenoyl-3-O-β-galactopyranosyl-sn-glycerol] was tested. Which iNOS protein level (iNOS protein) did it give?
A: Its iNOS protein level is “Little iNOS protein was detected”.

Q: And the IC50 ([1]; RAW 264.7, LPS 1 μg/mL 24 h, read-out: 50% inhibitory concentration for LPS-induced NO production)?
A: The IC50 was about 14.7 µM.

Q: And the IC50 ([1]; RAW 264.7, compound 1 h then LPS 1 μg/mL 24 h, read-out: IC50 for inhibiting LPS-induced NO production)?
A: Its IC50 is about 11.4 mg/L.

Q: And the “Inhibitory effect on COX-2 protein expression and nitrotyrosine-containing proteins versus celecoxib 10 mg in 200 μL/site” value ([2]; 1 mg in 200 μL/site (6.46 mM))?
A: Its value is “comparable to that of celecoxib”.

Q: What about the “TPA-induced increases of COX-2 and nitrotyrosine-containing proteins in epidermis” value ([2]; topical 30 min before TPA 10 nmol 4 h) of the same compound?
A: Its value is “significantly attenuated”.

Q: And the “Topical SNP-induced nitroprotein formation in mouse skin” value ([2]; topical, SNP-treated)?
A: The value was “suppressed”.

Q: What about the “Inhibition of COX-2 mRNA expression” value (COX-2 mRNA) of the same compound?
A: The value was about 29%.

Q: What about the IκBα degradation (IκBα) of the same compound?
A: The IκBα degradation was “prevented”.

Q: What about the “LPS-induced phosphorylation of IκBα” value (IκBα) of the same compound?
A: The value was “inhibited”.
